Data reported in US10150760B2, “Compounds for use in preparing heterocyclic triazole agonists of the APJ receptor” (AMGEN INC., priority 2016, dated 2018).

Target: human APJ receptor (Homo sapiens (Human), UniProt P35414)
Assay: [35S]GTPγS binding assay on membranes from CHO cells stably expressing human APJ receptor
Format: biochemical
Conditions: read-out: Activity hAPJ SPA EC50 IP
In short: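 Agonist-driven [35S]GTPγS (0.2 nM) binding was measured over 90 min at room temperature on human APJ-expressing CHO membranes with bead capture, in buffer containing 3 μM GDP, 200 mM NaCl and 5 mM MgCl2 (pH 7.5). Excess unlabelled GTPγS (100 μM) gave nonspecific signal; EC50 from non-linear fits.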

Chain of human APJ receptor (P35414 whole entry): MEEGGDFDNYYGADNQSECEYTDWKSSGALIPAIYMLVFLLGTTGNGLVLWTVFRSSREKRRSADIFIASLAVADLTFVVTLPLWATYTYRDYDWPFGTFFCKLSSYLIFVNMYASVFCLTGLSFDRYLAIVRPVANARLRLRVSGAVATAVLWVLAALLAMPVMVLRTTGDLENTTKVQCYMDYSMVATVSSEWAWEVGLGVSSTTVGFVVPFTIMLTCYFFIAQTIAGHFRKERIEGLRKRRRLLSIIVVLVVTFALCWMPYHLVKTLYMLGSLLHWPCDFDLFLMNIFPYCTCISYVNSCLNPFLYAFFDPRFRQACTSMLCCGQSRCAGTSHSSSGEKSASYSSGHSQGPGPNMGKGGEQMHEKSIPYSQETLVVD

Compound | EC50
(1R,2S)-1-(5-chloropyrimidin-2-yl)-1-methoxy-N-(4-(1-methylcyclopropyl)-5-((2S,5S)-5-methyltetrahydrofuran-2-yl)-4H-1,2,4-triazol-3-yl)propane-2-sulfonamide or (1R,2S)-1-(5-chloropyrimidin-2-yl)-1-methoxy-N-(4-(1-methylcyclopropyl)-5-((2R,5R)-5-methyltetrahydrofuran-2-yl)-4H-1,2,4-triazol-3-yl)propane-2-sulfonamide [Example 199.0] | 2.7 nM
COc1cccc(OC)c1-n1c(NS(=O)(=O)[C@@H](C)[C@H](C)c2ncc(Cl)cn2)nnc1C1COC1 [Example 36.0, (2S,3R)-3-(5-chloro-2-pyrimidinyl)-N-(4-(2,6-dimethoxyphenyl)-5-(3-oxetanyl)-4H-1,2,4-triazol-3-yl)-2-butanesulfonamide] | 140 nM
COCC1(n2c(NS(=O)(=O)[C@@H](C)[C@H](OC)c3ncc(Cl)cn3)nnc2[C@H]2COCCO2)CC1 (single isomer, unassigned) [Example 342.0, (1R,2S)-N-(5-((S)-1,4-dioxan-2-yl)-4-(1-(methoxymethyl)cyclopropyl)-4H-1,2,4-triazol-3-yl)-1-(5-chloropyrimidin-2-yl)-1-methoxypropane-2-sulfonamide or (1R,2S)-N-(5-((R)-1,4-dioxan-2-yl)-4-(1-(methoxymethyl)cyclopropyl)-4H-1,2,4-triazol-3-yl)-1-(5-chloropyrimidin-2-yl)-1-methoxypropane-2-sulfonamide] | 100 nM
CO[C@H](c1cnc(C)cn1)[C@H](C)S(=O)(=O)Nc1nnc([C@H]2CCCOC2)n1C1(C)CC1 (single isomer, unassigned) [Example 131.0, (1R,2S)-1-methoxy-N-(4-(1-methylcyclopropyl)-5-((R)-tetrahydro-2H-pyran-3-yl)-4H-1,2,4-triazol-3-yl)-1-(5-methylpyrazin-2-yl)propane-2-sulfonamide or (1R,2S)-1-methoxy-N-(4-(1-methylcyclopropyl)-5-((S)-tetrahydro-2H-pyran-3-yl)-4H-1,2,4-triazol-3-yl)-1-(5-methylpyrazin-2-yl)propane-2-sulfonamide] | 550 nM
COc1cccc(OC)c1-n1c(NS(=O)(=O)[C@@H](C)[C@H](C)c2cnc(C)cn2)nnc1[C@H]1CCCCO1 (single isomer, unassigned) [Example 107.0, (2S,3R)-N-(4-(2,6-dimethoxyphenyl)-5-((S)-tetrahydro-2H-pyran-2-yl)-4H-1,2,4-triazol-3-yl)-3-(5-methylpyrazin-2-yl)butane-2-sulfonamide or (2S,3R)-N-(4-(2,6-dimethoxyphenyl)-5-((R)-tetrahydro-2H-pyran-2-yl)-4H-1,2,4-triazol-3-yl)-3-(5-methylpyrazin-2-yl)butane-2-sulfonamide] | 5.1 nM
COc1cccc(OC)c1-n1c(NS(=O)(=O)[C@@H](C)[C@H](C)c2ncc(Cl)cn2)nnc1[C@@H]1CCN(C(=O)OC(C)(C)C)C1 (stereo in doubt) [Example 41.0, tert-butyl (3R)-3-(5-((((1S,2R)-2-(5-chloro-2-pyrimidinyl)-1-methylpropyl)sulfonyl)amino)-4-(2,6-dimethoxyphenyl)-4H-1,2,4-triazol-3-yl)-1-pyrrolidinecarboxylate or tert-butyl (3S)-3-(5-((((1S,2R)-2-(5-chloro-2-pyrimidinyl)-1-methylpropyl)sulfonyl)amino)-4-(2,6-dimethoxyphenyl)-4H-1,2,4-triazol-3-yl)-1-pyrrolidinecarboxylate] | 820 nM
